Reference: paper PMC11148329 (Frontiers in Cellular and Infection Microbiology, 2024)
Values joined by “and” are separate entries in the source; they are usually repeats but may differ in a detail not shown here. Equal entries are not always repeated. Where two headings read alike, the source gives them in different places.

Assays:
α7 nAChR [1] = molecular target: T1, α7 nAChR (Homo sapiens, UniProt P36544); assay: cell-based; format: cell-based
α6/α3β2β3 nAChR = α6/α3β2β3 nAChR (Homo sapiens, UniProt P17787+P32297+Q05901+Q15825); assay: cell-based
(α3β2)2α3 nAChR = (α3β2)2α3 nAChR (Homo sapiens, UniProt P17787+P32297); assay: cell-based; conditions: read-out: % Max Inhibition (95% CI)
(α4β2)2β2 nAChR [2] = molecular target: T2, (α4β2)2β2 nAChR (Homo sapiens, UniProt P17787+P43681); assay: cell-based; conditions: read-out: % Max Inhibition (95% CI)
T2 sequence (P43681 27-627 limits assumed): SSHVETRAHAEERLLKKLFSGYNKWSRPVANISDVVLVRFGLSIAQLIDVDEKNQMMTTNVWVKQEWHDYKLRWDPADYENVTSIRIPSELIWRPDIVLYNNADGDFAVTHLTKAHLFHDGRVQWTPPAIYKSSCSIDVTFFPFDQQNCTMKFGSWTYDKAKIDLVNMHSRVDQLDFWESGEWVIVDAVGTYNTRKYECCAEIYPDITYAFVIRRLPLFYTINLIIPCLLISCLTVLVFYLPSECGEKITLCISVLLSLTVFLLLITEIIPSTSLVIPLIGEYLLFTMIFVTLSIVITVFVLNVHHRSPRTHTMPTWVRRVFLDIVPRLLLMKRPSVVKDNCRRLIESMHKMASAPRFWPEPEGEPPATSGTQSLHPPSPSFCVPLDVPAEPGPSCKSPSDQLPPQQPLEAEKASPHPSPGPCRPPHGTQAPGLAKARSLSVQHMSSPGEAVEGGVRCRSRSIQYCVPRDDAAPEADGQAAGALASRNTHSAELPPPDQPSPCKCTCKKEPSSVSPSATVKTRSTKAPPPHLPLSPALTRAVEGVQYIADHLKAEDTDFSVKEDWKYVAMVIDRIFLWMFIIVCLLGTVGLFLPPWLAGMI
T2 sequence (P17787 26-502 limits assumed): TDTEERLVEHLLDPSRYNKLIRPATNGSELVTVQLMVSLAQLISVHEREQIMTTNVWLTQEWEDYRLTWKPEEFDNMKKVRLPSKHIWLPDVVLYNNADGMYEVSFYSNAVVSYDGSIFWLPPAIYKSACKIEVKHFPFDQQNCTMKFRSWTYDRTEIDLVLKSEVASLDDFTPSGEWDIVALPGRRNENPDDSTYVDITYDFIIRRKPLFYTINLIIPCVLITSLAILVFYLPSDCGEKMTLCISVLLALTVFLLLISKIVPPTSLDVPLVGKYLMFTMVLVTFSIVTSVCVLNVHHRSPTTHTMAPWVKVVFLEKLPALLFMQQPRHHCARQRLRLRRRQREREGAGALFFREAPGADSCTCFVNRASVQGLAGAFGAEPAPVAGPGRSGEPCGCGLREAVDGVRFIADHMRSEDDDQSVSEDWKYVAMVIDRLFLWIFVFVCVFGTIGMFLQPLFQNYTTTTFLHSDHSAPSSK

(α3β4)2α3 nAChR [3] = molecular target: T3, (α3β4)2α3 nAChR (Homo sapiens, UniProt P30926+P32297); assay: cell-based; conditions: read-out: % Max Inhibition (95% CI)
(α3β2)2β2 nAChR [4] = molecular target: T4, (α3β2)2β2 nAChR (Homo sapiens, UniProt P17787+P32297); assay: cell-based; conditions: read-out: % Max Inhibition (95% CI)
T4 sequence (P32297 32-505 limits assumed): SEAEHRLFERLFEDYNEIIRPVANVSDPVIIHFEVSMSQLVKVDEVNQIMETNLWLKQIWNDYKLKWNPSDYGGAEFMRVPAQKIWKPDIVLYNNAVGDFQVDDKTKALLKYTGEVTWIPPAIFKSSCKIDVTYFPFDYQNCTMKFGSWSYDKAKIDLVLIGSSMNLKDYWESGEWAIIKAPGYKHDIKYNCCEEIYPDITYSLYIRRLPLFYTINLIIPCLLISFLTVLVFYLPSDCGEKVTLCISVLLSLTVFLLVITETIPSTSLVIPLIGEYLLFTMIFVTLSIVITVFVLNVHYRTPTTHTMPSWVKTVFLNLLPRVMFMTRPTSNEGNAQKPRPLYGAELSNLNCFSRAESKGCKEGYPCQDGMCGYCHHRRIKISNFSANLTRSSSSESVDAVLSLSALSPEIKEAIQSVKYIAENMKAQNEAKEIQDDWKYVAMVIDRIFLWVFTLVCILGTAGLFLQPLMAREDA
T4 sequence (P17787 26-502 limits assumed): as the sequence (P17787 26-502 limits assumed) above

(α3β4)2β4 nAChR [5] = molecular target: T5, (α3β4)2β4 nAChR (Homo sapiens, UniProt P30926+P32297); assay: cell-based; conditions: read-out: % Max Inhibition (95% CI)
α4β2α5 nAChR [6] = molecular target: T6, α4β2α5 nAChR (Homo sapiens, UniProt P17787+P30532+P43681); assay: cell-based
T6 sequence (P43681 29-627 limits assumed): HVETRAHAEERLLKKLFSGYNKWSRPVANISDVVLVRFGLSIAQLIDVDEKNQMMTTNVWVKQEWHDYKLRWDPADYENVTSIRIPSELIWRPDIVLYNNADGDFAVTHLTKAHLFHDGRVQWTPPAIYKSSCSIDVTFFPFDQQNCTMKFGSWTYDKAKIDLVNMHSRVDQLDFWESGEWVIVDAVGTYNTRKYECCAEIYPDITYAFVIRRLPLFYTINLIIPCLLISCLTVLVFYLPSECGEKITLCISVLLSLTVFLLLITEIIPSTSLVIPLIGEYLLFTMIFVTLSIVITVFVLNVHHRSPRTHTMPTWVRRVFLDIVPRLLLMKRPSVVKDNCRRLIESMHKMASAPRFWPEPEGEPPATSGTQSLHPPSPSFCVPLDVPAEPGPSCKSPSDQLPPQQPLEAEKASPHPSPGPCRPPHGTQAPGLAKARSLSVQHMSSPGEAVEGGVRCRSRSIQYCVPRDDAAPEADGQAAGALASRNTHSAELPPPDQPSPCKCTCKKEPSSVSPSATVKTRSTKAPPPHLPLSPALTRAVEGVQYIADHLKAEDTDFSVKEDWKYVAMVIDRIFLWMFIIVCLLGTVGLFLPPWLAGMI
T6 sequence (P17787 26-502 limits assumed): as the sequence (P17787 26-502 limits assumed) above
T6 sequence (P30532 23-468 partner limits assumed): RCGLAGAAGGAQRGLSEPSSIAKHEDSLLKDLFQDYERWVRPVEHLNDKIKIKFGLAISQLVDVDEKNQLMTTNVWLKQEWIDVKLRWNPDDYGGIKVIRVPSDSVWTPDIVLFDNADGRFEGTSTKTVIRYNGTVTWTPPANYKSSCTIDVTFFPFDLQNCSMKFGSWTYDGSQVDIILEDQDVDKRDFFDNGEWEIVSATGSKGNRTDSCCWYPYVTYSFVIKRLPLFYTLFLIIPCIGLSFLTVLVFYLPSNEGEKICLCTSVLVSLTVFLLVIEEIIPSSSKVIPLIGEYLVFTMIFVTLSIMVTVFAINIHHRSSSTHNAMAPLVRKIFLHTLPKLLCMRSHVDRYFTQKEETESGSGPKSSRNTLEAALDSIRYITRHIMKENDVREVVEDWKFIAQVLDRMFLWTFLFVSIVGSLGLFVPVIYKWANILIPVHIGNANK

(α4β2)2α4 nAChR [7] = molecular target: T7, (α4β2)2α4 nAChR (Homo sapiens, UniProt P17787+P43681); assay: cell-based
T7 sequence (P43681 29-627 limits assumed): as the sequence (P43681 29-627 limits assumed) above
T7 sequence (P17787 26-502 limits assumed): as the sequence (P17787 26-502 limits assumed) above

α7 nAChR [8] = molecular target: T1, α7 nAChR; format: cell-based
α4β2α5 nAChR [9] = molecular target: T6, α4β2α5 nAChR
α7 nAChR [10] = molecular target: T1, α7 nAChR; assay: cell-based; format: cell-based; remark: listed apart in the source
(α4β2)2α4 nAChR [11] = molecular target: T7, (α4β2)2α4 nAChR; assay: cell-based; conditions: read-out: ACh EC90
β3-α6-β2-α4-β2 nAChR = β3-α6-β2-α4-β2 nAChR (Homo sapiens, UniProt P17787+P43681+Q15825); assay: cell-based
α4β2α5 nAChR [12] = molecular target: T6, α4β2α5 nAChR; assay: cell-based; conditions: read-out: ACh EC90
(α3β4)2α3 nAChR [13] = molecular target: T3, (α3β4)2α3 nAChR
(α3β2)2β2 nAChR [14] = molecular target: T4, (α3β2)2β2 nAChR; assay: cell-based
(α3β4)2β4 nAChR [15] = molecular target: T5, (α3β4)2β4 nAChR
(α4β2)2β2 nAChR [16] = molecular target: T2, (α4β2)2β2 nAChR; assay: cell-based
[17] = read-out: % Max Inhibition (95% CI)

## CC[C@H](C)[C@H](NC(=O)[C@H](CC(=O)O)NC(=O)[C@H](CS)NC(=O)[C@H](CO)NC(=O)[C@@H](NC(=O)CNC(=O)[C@H](CC(C)C)NC(=O)[C@H](CCCNC(=N)N)NC(=O)[C@@H]1CCCN1C(=O)[C@H](CC(N)=O)NC(=O)[C@H](CCC(=O)O)NC(=O)[C@@H]1CCCN1C(=O)[C@H](CCSC)NC(=O)[C@H](Cc1c[nH]c2ccccc12)NC(=O)[C@@H](NC(=O)[C@@H](NC(=O)[C@@H](N)Cc1ccc(O)cc1)[C@@H](C)O)[C@@H](C)CC)[C@@H](C)O)C(=O)N[C@@H](Cc1ccccc1)C(=O)N[C@H](C(=O)N[C@@H](CC(N)=O)C(=O)N[C@@H](CO)C(=O)N[C@@H](CCCNC(=N)N)C(=O)NCC(=O)N[C@@H](CCCCN)C(=O)N[C@@H](CCCNC(=N)N)C(=O)N[C@@H](C)C(=O)N[C@@H](CO)C(=O)N[C@@H](CCCCN)C(=O)NCC(=O)O)[C@@H](C)O [RVG peptide]
α7 nAChR [1]
  % Max Inhibition of ACh EC90 (95% CI): 98 (97 – 99) %
  IC50: 25 µM
α6/α3β2β3 nAChR
  IC50: 300 µM
α6/α3β2β3 nAChR; [17]
  inhibition at 1000 µM: 82%
(α3β2)2α3 nAChR
  inhibition at 1000 µM: 67%
(α4β2)2β2 nAChR [2]
  inhibition at 1000 µM: 46%
(α3β4)2α3 nAChR [3]
  inhibition at 1000 µM: 49%
(α3β2)2β2 nAChR [4]
  inhibition at 1000 µM: 57%
(α3β4)2β4 nAChR [5]
  inhibition at 1000 µM: 22%
α4β2α5 nAChR [6]
  IC50: 340 µM
α4β2α5 nAChR [6]; [17]
  inhibition at 1000 µM: 67%
(α4β2)2α4 nAChR [7]; IC50 (95% CI)
  IC50: 270 µM
(α4β2)2α4 nAChR [7]; IC50, 95% CI
  IC50: 220 to 340 µM
(α4β2)2α4 nAChR [7]; [17]
  inhibition at 1000 µM: 76%

## CC(=O)OCC[N+](C)(C)C [ACh, acetylcholine]
α7 nAChR [8]
  NH (1) (95% CI): 1.6 (1.4 – 1.9)
α7 nAChR [8]; read-out: ACh EC90
  EC90: 1260 µM
α4β2α5 nAChR [9]
  NH (1) (95% CI): 0.90 (0.82 – 0.99)
α7 nAChR [10]
  NH (95% CI) of ACh curve, drug treatment none: 1.1 (1.0 - 1.2)
(α4β2)2α4 nAChR [11]
  EC90: 316 µM
β3-α6-β2-α4-β2 nAChR
  NH (1) (95% CI): 0.77 (0.69 – 0.85)
β3-α6-β2-α4-β2 nAChR; read-out: ACh EC90
  EC90: 40 µM
α4β2α5 nAChR [12]
  EC90: 20 µM
(α3β4)2α3 nAChR [13]
  NH (1) (95% CI): 1.9 (1.7 – 2.1)
(α3β2)2β2 nAChR [14]
  NH (1) (95% CI): 0.95 (0.84 – 1.1)
(α3β2)2β2 nAChR [14]; read-out: ACh EC90
  EC90: 316 µM
(α3β4)2β4 nAChR [15]
  NH (1) (95% CI): 1.0 (0.92 – 1.2)
(α4β2)2β2 nAChR [16]
  NH (1) (95% CI): 0.85 (0.76 – 0.95)
(α4β2)2β2 nAChR [16]; read-out: ACh EC90
  EC90: 100 µM

## CCN1C[C@]2(COC(=O)c3ccccc3N3C(=O)C[C@H](C)C3=O)CC[C@H](OC)[C@@]34[C@@H]5C[C@H]6[C@H](OC)[C@@H]5[C@](O)(C[C@@H]6OC)[C@@](O)([C@@H](OC)[C@H]23)[C@@H]14 [MLA, Methyllycaconitine]
α7 nAChR [1]
  block of ACh EC90 response by MLA: prevented α7 nAChR activation
α7 nAChR [10]
  NH (95% CI) of ACh curve with co-applied MLA: 0.9 (0.8 - 1.1) and 1.1 (0.9 - 1.2)
α7 nAChR [10]; IC50 (95% CI): ACh apparent potency with co-applied MLA
  IC50: 330 µM and 412 µM
